Test results reported in ChEMBL document CHEMBL1201862, “PubChem BioAssay data set” (2004).
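These data come from cells grown in 96-well plates and exposed to compound for 48 hours at five concentrations. At the GI50, growth is halved.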 Calls of active or inactive are those of the source. Rule as the data show it: active = GI50 up to about 1.1 µM and inactive = higher.

What was measured:
Test in all cases: NCI-60 cell line screen, 48 h
A498 = system: A498
HCT-15 = system: HCT-15
HL-60 = system: HL-60
HOP-62 = system: HOP-62
K562 = system: K562
KM12 = system: KM12
LOX IMVI = system: LOX IMVI
MOLT-4 = system: MOLT-4
NCI-H460 = system: NCI-H460
NCI-H522 = system: NCI-H522
NCI/ADR-RES = system: NCI/ADR-RES
OVCAR-3 = system: OVCAR-3
RPMI-8226 = system: RPMI-8226
SF-268 = system: SF-268
SF-295 = system: SF-295
SN12C = system: SN12C
SNB-19 = system: SNB-19
TK-10 = system: TK-10
UACC-62 = system: UACC-62

Structure (SMILES) | GI50 (A498) | GI50 (HCT-15) | GI50 (HL-60) | GI50 (HOP-62) | GI50 (K562) | GI50 (KM12) | GI50 (LOX IMVI) | GI50 (MOLT-4) | GI50 (NCI-H460) | GI50 (NCI-H522) | GI50 (NCI/ADR-RES) | GI50 (OVCAR-3) | GI50 (RPMI-8226) | GI50 (SF-268) | GI50 (SF-295) | GI50 (SN12C) | GI50 (SNB-19) | GI50 (TK-10) | GI50 (UACC-62)
O=C(Oc1cccnc1)c1cc2cc(CCl)ccc2oc1=O | 48.5 µM (inactive) | 23.8 µM | 22.8 µM (inactive) | 76.2 µM (inactive) | 19.5 µM (inactive) | 31.6 µM (inactive) | 21 µM (inactive) | 23.3 µM (inactive) | 31 µM (inactive) | 17 µM (inactive) | 29.5 µM (inactive) | 25.5 µM (inactive) | 24.5 µM (inactive) | 20.8 µM (inactive) | > 100 µM (inactive) | 21.6 µM (inactive) | 61.9 µM (inactive) | 20.8 µM (inactive) | 8.71 µM (inactive)
O=C(N/N=C/C=C/c1ccc([N+](=O)[O-])o1)c1ccc(C(=O)N/N=C/C=C/c2ccc([N+](=O)[O-])o2)cc1 | > 100 µM (inactive) | 37.4 µM | 19.8 µM (inactive) | 46.7 µM (inactive) | 33.1 µM (inactive) | > 100 µM (inactive) | 28.1 µM (inactive) | 5.42 µM (inactive) | > 40.8 µM (inactive) | 24.3 µM (inactive) | 36.7 µM (inactive) | 31.7 µM (inactive) | 7.62 µM (inactive) | 15.8 µM (inactive) | > 85.5 µM (inactive) | > 37.9 µM (inactive) | 43.3 µM (inactive) | 31.8 µM (inactive) | > 86.3 µM (inactive)
O=NC1C(Cl)C2CC1C1C(Br)C(Br)CC21 (centres undefined) | > 100 µM (inactive) | > 100 µM | > 100 µM (inactive) | > 100 µM (inactive) | > 100 µM (inactive) | > 100 µM (inactive) | > 100 µM (inactive) | > 100 µM (inactive) | > 100 µM (inactive) | > 100 µM (inactive) | > 100 µM (inactive) | > 100 µM (inactive) | 20.8 µM (inactive) | > 100 µM (inactive) | > 100 µM (inactive) | > 100 µM (inactive) | > 100 µM (inactive) | > 100 µM (inactive) | > 100 µM (inactive)
O[C@H]1[C@@H]2OC[C@@H](O)[C@H](OCc3ccccc3)[C@@](COCc3ccccc3)(O2)[C@@H]1OCc1ccccc1 | 17.5 µM (inactive) | 16.4 µM | 32.6 µM (inactive) | 17.2 µM (inactive) | 25.4 µM (inactive) | 17.2 µM (inactive) | 18.5 µM (inactive) | 30.7 µM (inactive) | 20.3 µM (inactive) | 13.7 µM (inactive) | 16.7 µM (inactive) | 5.46 µM (inactive) | 10.4 µM (inactive) | 22.2 µM (inactive) | 12.6 µM (inactive) | 14.7 µM (inactive) | 16.4 µM (inactive) | 17.2 µM (inactive) | 11.4 µM (inactive)
Fc1ccc(OCc2nc3cc(C(F)(F)F)ccc3nc2-c2ccccc2)cc1 | > 100 µM (inactive) | > 66.2 µM | > 47 µM (inactive) | > 100 µM (inactive) | 3.06 µM (inactive) | > 100 µM (inactive) | > 100 µM (inactive) | 13.2 µM (inactive) | > 100 µM (inactive) | 28.4 µM (inactive) | 98.2 µM (inactive) | > 100 µM (inactive) | 46.6 µM (inactive) | > 100 µM (inactive) | > 100 µM (inactive) | > 100 µM (inactive) | > 83 µM (inactive) |  | > 100 µM (inactive)
COc1cc(C2OC[C@@H]3C(=O)OC[C@H]23)cc(O)c1OC (some centres undefined) | > 100 µM (inactive) | > 100 µM | > 100 µM (inactive) |  | > 100 µM (inactive) | > 100 µM (inactive) | > 100 µM (inactive) | > 100 µM (inactive) | > 100 µM (inactive) | > 100 µM (inactive) | > 100 µM (inactive) | > 100 µM (inactive) | > 100 µM (inactive) | > 100 µM (inactive) | > 100 µM (inactive) | > 100 µM (inactive) | > 100 µM (inactive) | > 100 µM (inactive) | > 100 µM (inactive)
CS/C(Nc1ccccc1)=C1\C(=O)N(c2ccccc2)N=C1C | 95.7 µM (inactive) | > 100 µM | > 100 µM (inactive) |  | > 100 µM (inactive) | > 100 µM (inactive) | > 100 µM (inactive) | > 100 µM (inactive) | > 100 µM (inactive) | 35.1 µM (inactive) | > 100 µM (inactive) | > 100 µM (inactive) | > 100 µM (inactive) | > 100 µM (inactive) |  | > 100 µM (inactive) | > 100 µM (inactive) | > 100 µM (inactive) | > 100 µM (inactive)
